Laboratory results reported in patent US8791102B2, “Acetanilide sphingosine-1-phosphate receptor antagonists” (Exelixis, Inc., priority 2008, dated 2014).

Target: T1, human S1P1 receptors (Homo sapiens, UniProt P21453)
T1 construct: host or cells: HEK293
Test: S1P1R antagonist assay (fluorescent membrane potential dye, cAMP readout)
Type: cell-based
Conditions: HEK293 cells expressing human S1P1 receptors and CNG channel; 500 nM NECA; S1P1R agonist 10 nM; 90 minutes; read-out: EC50 or IC50 value

T1 sequence (P21453 whole entry): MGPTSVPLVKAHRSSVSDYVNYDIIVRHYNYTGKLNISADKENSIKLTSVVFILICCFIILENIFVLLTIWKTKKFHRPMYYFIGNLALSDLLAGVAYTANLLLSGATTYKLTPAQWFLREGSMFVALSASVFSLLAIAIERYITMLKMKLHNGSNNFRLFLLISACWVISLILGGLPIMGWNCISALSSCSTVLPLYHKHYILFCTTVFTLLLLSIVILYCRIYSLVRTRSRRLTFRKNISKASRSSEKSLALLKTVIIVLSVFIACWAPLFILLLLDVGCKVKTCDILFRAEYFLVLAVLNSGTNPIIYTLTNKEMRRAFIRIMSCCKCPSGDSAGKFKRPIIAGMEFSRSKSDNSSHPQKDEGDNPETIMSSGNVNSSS

IC50 | SMILES
> 1000 nM | O=C(NC(COCc1ccccc1)C(=O)Nc1ccc(Oc2ccccc2)cc1)c1cccnc1Cl (stereo not shown) [Compound 296, 2-chloro-N-(2-oxo-1-{[(phenylmethyl)oxy]methyl}-2-{[4-(phenyloxy)phenyl]amino}ethyl)pyridine-3-carboxamide]
> 1000 nM | O=C(NC(COCc1ccccc1)C(=O)Nc1ccc(Oc2ccccc2)cc1)c1sc2ccccc2c1Cl (stereo not shown) [Compound 297, 3-chloro-N-(2-oxo-1-{[(phenylmethyl)oxy]methyl}-2-{[4-(phenyloxy)phenyl]amino}ethyl)-1-benzothiophene-2-carboxamide]
> 1000 nM | C=CCCC(=O)NC(COCc1ccccc1)C(=O)Nc1ccc(Oc2ccccc2)cc1 (stereo not shown) [Compound 298, N-(2-oxo-1-{[(phenylmethyl)oxy]methyl}-2-{[4-(phenyloxy)phenyl]amino}ethyl)pent-4-enamide]
300 to 1000 nM | O=C(Cc1ccccc1Br)NC(COCc1ccccc1)C(=O)Nc1ccc(Oc2ccccc2)cc1 (stereo not shown) [Compound 301, N-(2-oxo-1-{[(phenylmethyl)oxy]methyl}-2-{[4-(phenyloxy)phenyl]amino}ethyl)-2-bromophenylacetamide]
> 1000 nM | CSc1ccc(C(=O)NC(COCc2ccccc2)C(=O)Nc2ccc(Oc3ccccc3)cc2)cc1 (stereo not shown) [Compound 306, 4-(methylthio)-N-(2-oxo-1-{[(phenylmethyl)oxy]methyl}-2-{[4-(phenyloxy)phenyl]amino}ethyl)benzamide]
> 1000 nM | COc1ccc(F)cc1C(=O)NC(COCc1ccccc1)C(=O)Nc1ccc(Oc2ccccc2)cc1 (stereo not shown) [Compound 308, 5-fluoro-2-(methyloxy)-N-(2-oxo-1-{[(phenylmethyl)oxy]methyl}-2-{[4-(phenyloxy)phenyl]amino}ethyl)benzamide]
> 1000 nM | COc1ccc(C(=O)NC(COCc2ccccc2)C(=O)Nc2ccc(Oc3ccccc3)cc2)c(C)c1 (stereo not shown) [Compound 309, 2-methyl-4-(methyloxy)-N-(2-oxo-1-{[(phenylmethyl)oxy]methyl}-2-{[4-(phenyloxy)phenyl]amino}ethyl)benzamide]
> 1000 nM | O=C(NC(COCc1ccccc1)C(=O)Nc1ccc(Oc2ccccc2)cc1)c1ccccc1-n1cccc1 (stereo not shown) [Compound 314, N-(2-oxo-1-{[(phenylmethyl)oxy]methyl}-2-{[4-(phenyloxy)phenyl]amino}ethyl)-2-(1H-pyrrol-1-yl)benzamide]
> 1000 nM | COc1cc(OC)cc(C(=O)NC(COCc2ccccc2)C(=O)Nc2ccc(Oc3ccccc3)cc2)c1 (stereo not shown) [Compound 316, 3,5-bis(methyloxy)-N-(2-oxo-1-{[(phenylmethyl)oxy]methyl}-2-{[4-(phenyloxy)phenyl]amino}ethyl)benzamide]

More lines, now with the values behind:

SMILES | IC50
O=C(NC(COCc1ccccc1)C(=O)Nc1ccc(Oc2ccccc2)cc1)c1cccs1 (stereo not shown) [Compound 292, N-(2-oxo-1-{[(phenylmethyl)oxy]methyl}-2-{[4-(phenyloxy)phenyl]amino}ethyl)thiophene-2-carboxamide] | > 1000 nM
O=C(Cc1cccs1)NC(COCc1ccccc1)C(=O)Nc1ccc(Oc2ccccc2)cc1 (stereo not shown) [Compound 293, N-(2-oxo-1-{[(phenylmethyl)oxy]methyl}-2-{[4-(phenyloxy)phenyl]amino}ethyl)thien-2-ylacetamide] | > 1000 nM
CN(C)c1ccc(C(=O)NC(COCc2ccccc2)C(=O)Nc2ccc(Oc3ccccc3)cc2)cc1 (stereo not shown) [Compound 294, 4-(dimethylamino)-N-(2-oxo-1-{[(phenylmethyl)oxy]methyl}-2-{[4-(phenyloxy)phenyl]amino}ethyl)benzamide] | > 1000 nM
CCCCCC(=O)NC(COCc1ccccc1)C(=O)Nc1ccc(Oc2ccccc2)cc1 (stereo not shown) [Compound 295, N-(2-oxo-1-{[(phenylmethyl)oxy]methyl}-2-{[4-(phenyloxy)phenyl]amino}ethyl)hexanamide] | > 1000 nM
O=C(NC(COCc1ccccc1)C(=O)Nc1ccc(Oc2ccccc2)cc1)c1cccc(Cl)c1F (stereo not shown) [Compound 299, 3-chloro-2-fluoro-N-(2-oxo-1-{[(phenylmethyl)oxy]methyl}-2-{[4-(phenyloxy)phenyl]amino}ethyl)benzamide] | > 1000 nM
O=C(CCCc1ccccc1)NC(COCc1ccccc1)C(=O)Nc1ccc(Oc2ccccc2)cc1 (stereo not shown) [Compound 300, N-(2-oxo-1-{[(phenylmethyl)oxy]methyl}-2-{[4-(phenyloxy)phenyl]amino}ethyl)-4-phenylbutanamide] | > 1000 nM
O=C(NC(COCc1ccccc1)C(=O)Nc1ccc(Oc2ccccc2)cc1)C1CCN(c2nccc(C(F)(F)F)n2)CC1 (stereo not shown) [Compound 302, N-(2-oxo-1-{[(phenylmethyl)oxy]methyl}-2-{[4-(phenyloxy)phenyl]amino}ethyl)-1-[4-(trifluoromethyl)pyrimidin-2-yl]piperidine-4-carboxamide] | > 1000 nM
COCCOCC(=O)NC(COCc1ccccc1)C(=O)Nc1ccc(Oc2ccccc2)cc1 (stereo not shown) [Compound 303, N-(2-oxo-1-{[(phenylmethyl)oxy]methyl}-2-{[4-(phenyloxy)phenyl]amino}ethyl)-2-methoxyethoxyacetamide] | 300 to 1000 nM
COc1ccc(CCC(=O)NC(COCc2ccccc2)C(=O)Nc2ccc(Oc3ccccc3)cc2)cc1 (stereo not shown) [Compound 304, N-(2-oxo-1-{[(phenylmethyl)oxy]methyl}-2-{[4-(phenyloxy)phenyl]amino}ethyl)-3-(4-methoxyphenyl)propanamide] | > 1000 nM
CC(=O)Nc1nc(C)c(S(=O)(=O)NC(COCc2ccccc2)C(=O)Nc2ccc(Oc3ccccc3)cc2)s1 (stereo not shown) [Compound 305, N-(2-oxo-1-{[(phenylmethyl)oxy]methyl}-2-{[4-(phenyloxy)phenyl]amino}ethyl)-2-acetylamino-4-methylthiazol-5-ylsulfonamide] | ≤ 300 nM
CSCC(=O)NC(COCc1ccccc1)C(=O)Nc1ccc(Oc2ccccc2)cc1 (stereo not shown) [Compound 307, N-(2-oxo-1-{[(phenylmethyl)oxy]methyl}-2-{[4-(phenyloxy)phenyl]amino}ethyl)-2-(methylthio)acetamide] | ≤ 300 nM
CC(=O)CCCC(=O)NC(COCc1ccccc1)C(=O)Nc1ccc(Oc2ccccc2)cc1 (stereo not shown) [Compound 310, 5-oxo-N-(2-oxo-1-{[(phenylmethyl)oxy]methyl}-2-{[4-(phenyloxy)phenyl]amino}ethyl)hexanamide] | > 1000 nM
Cc1cc(Br)ccc1C(=O)NC(COCc1ccccc1)C(=O)Nc1ccc(Oc2ccccc2)cc1 (stereo not shown) [Compound 311, 4-bromo-2-methyl-N-(2-oxo-1-{[(phenylmethyl)oxy]methyl}-2-{[4-(phenyloxy)phenyl]amino}ethyl)benzamide] | > 1000 nM
O=C(CCC(=O)c1cccs1)NC(COCc1ccccc1)C(=O)Nc1ccc(Oc2ccccc2)cc1 (stereo not shown) [Compound 312, 4-oxo-N-(2-oxo-1-{[(phenylmethyl)oxy]methyl}-2-{[4-(phenyloxy)phenyl]amino}ethyl)-4-(2-thienyl)butanamide] | > 1000 nM
O=C(CSc1ccccc1)NC(COCc1ccccc1)C(=O)Nc1ccc(Oc2ccccc2)cc1 (stereo not shown) [Compound 313, N-(2-oxo-1-{[(phenylmethyl)oxy]methyl}-2-{[4-(phenyloxy)phenyl]amino}ethyl)-2-(phenylthio)acetamide] | 300 to 1000 nM
COCCOCCOCC(=O)NC(COCc1ccccc1)C(=O)Nc1ccc(Oc2ccccc2)cc1 (stereo not shown) [Compound 315, N-(2-oxo-1-{[(phenylmethyl)oxy]methyl}-2-{[4-(phenyloxy)phenyl]amino}ethyl)-2-[2-(methoxy)ethoxy]ethoxyacetamide] | > 1000 nM
